Assay results published in patent US20130236501A1, “Injectable Emulsion of Sedative Hypnotic Agent” (ASTRAZENECA AB, priority 2010, published 2013).
Converted amounts (≈) assume the structure as drawn.

Test: Water solubility of Compound A
Assay type: physicochemical
Description: Agents for sedation and anaesthesia are frequently administered by intravenous injection, a form of administration for which the agents need to be in a water-miscible form. Compound A, however, is an oleaginous compound with a water solubility of about 2 mg/ml. Such a compound is considered “slightly soluble” in the solubility definitions in General Notices 5.30 of the United States Pharmacopeia, USP33-NF28, published by the United States Pharmacopeial Convention Inc., Rockville, Md. In the case of Compound A, this solubility is not optimal for a therapeutically useful dose to be prepared simply by dissolution in water. The preparation of slightly soluble medicinal compounds for intravenous administration has been the subject of considerable investigation, but remains a significant challenge in the development of new therapeutic agents. Several drug delivery systems have been investigated for such compounds. In the present application, emulsions, in which droplets of oil, in which the drug is itself dissolved, are dispersed in an aqueous medium with the aid of an emulsifier and other suitable excipients and processing. A similar method is used for the commercial formulation of propofol, (2,6-diisopropyl-phenol), which is commercially available as Diprivan® Injectable Emulsion at concentrations of 1% and 2%. Oil-in-water emulsions comprising propofol are described in WO 96/29064.

CCCOC(=O)Cc1ccc(OCC(=O)N(CC)CC)c(OCC)c1 [Compound A, [3-ethoxy-4-[(N,N-diethylcarbamido)methoxy]phenyl]acetic acid n-propyl ester] showed a solubility of roughly 2000 µg/mL (≈ 5.69 mM).
